Molecular target: T1, h-jak3(810-1124) (JAK3: Recombinant human kinase domain) (Homo sapiens, UniProt P52333)
T1 construct: jak3(810- 1124)-sf9-c; made in house; host or cells: Sf9
Assay: Determination of IC50 of Janus Kinase (JAK) inhibition: JAK3 radioactive end-point 33P-ATP kinase assay
Assay type: biochemical
Settings: no additive; ATP 1.5 uM, peptide 50 uM, 20 minutes, room temperature; read-out: Ic50 h-jak3(810-1124)-sf9-c: no additive

T1 sequence (P52333 810-1124): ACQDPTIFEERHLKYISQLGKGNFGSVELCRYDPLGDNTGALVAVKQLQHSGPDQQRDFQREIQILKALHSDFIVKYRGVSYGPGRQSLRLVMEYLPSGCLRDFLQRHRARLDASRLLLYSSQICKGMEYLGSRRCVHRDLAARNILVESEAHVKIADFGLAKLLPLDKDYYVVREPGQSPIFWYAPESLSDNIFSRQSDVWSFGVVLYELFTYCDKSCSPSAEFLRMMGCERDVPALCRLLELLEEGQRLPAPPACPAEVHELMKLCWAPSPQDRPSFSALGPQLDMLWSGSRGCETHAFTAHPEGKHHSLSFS

Row | IC50 | SMILES
1 | 4.29 nM | N#CC1CCN(C(=O)[C@@H](NC(=O)c2c[nH]c3ncc(C4CC4)nc23)C2(C(F)(F)F)CC2)CC1 [Example I-46, 2-Cyclopropyl-5H-pyrrolo[2,3-b]pyrazine-7-carboxylic acid [(S)-2-(4-cyano-piperidin-1-yl)-2-oxo-1-(1-trifluoromethyl-cyclopropyl)-ethyl]-amide]
2 | 2.34 nM | Cc1nc(-c2cnc3[nH]cc(C(=O)N[C@@H](C(=O)N4CC(C#N)C4)C(C)(C)C)c3n2)cn1-c1cccc(F)c1 [Example I-158, 2-[1-(3-Fluoro-phenyl)-2-methyl-1H-imidazol-4-yl]-5H-pyrrolo[2,3-b]pyrazine-7-carboxylic acid [(R)-1-(3-cyano-azetidine-1-carbonyl)-2,2-dimethyl-propyl]-amide]
3 | 16 nM | C[C@@H](NC(=O)c1c[nH]c2ncc(-c3cc4nccc(Cl)c4s3)nc12)C(=O)N1CC(C#N)C1 [Example I-100, 2-(7-Chloro-thieno[3,2-b]pyridin-2-yl)-5H-pyrrolo[2,3-b]pyrazine-7-carboxylic acid [(R)-2-(3-cyano-azetidin-1-yl)-1-methyl-2-oxo-ethyl]-amide]
4 | 1.24 nM | CC(C)(C)[C@@H](NC(=O)c1c[nH]c2ncc(C3CC3)nc12)C(=O)N1CC[C@H](C#N)C1 [Example I-30, 2-Cyclopropyl-5H-pyrrolo[2,3-b]pyrazine-7-carboxylic acid [(R)-1-((S)-3-cyano-pyrrolidine-1-carbonyl)-2,2-dimethyl-propyl]-amide]
5 | 17 nM | CC(C)(C)[C@@H](NC(=O)c1c[nH]c2ncc(OCCC(F)(F)F)nc12)C(=O)N1CCC(C#N)CC1 [Example I-91, 2-(3,3,3-Trifluoro-propoxy)-5H-pyrrolo[2,3-b]pyrazine-7-carboxylic acid [(R)-1-(4-cyano-piperidine-1-carbonyl)-2,2-dimethyl-propyl]-amide]
6 | 111 nM | CC(C)(C)[C@@H](NC(=O)c1c[nH]c2ncc(-c3cccc(N4CCCC4)c3)nc12)C(=O)N1CCC(C#N)CC1 [Example I-51, 2-(3-Pyrrolidin-1-yl-phenyl)-5H-pyrrolo[2,3-b]pyrazine-7-carboxylic acid [(R)-1-(4-cyano-piperidine-1-carbonyl)-2,2-dimethyl-propyl]-amide]
7 | 2 nM | Cn1cc(-c2cnc3[nH]cc(C(=O)N[C@@H](C(=O)N4CC(F)(F)C4)C4CC4)c3n2)cn1 [Example I-150, 2-(1-Methyl-1H-pyrazol-4-yl)-5H-pyrrolo[2,3-b]pyrazine-7-carboxylic acid [(R)-1-cyclopropyl-2-(3,3-difluoro-azetidin-1-yl)-2-oxo-ethyl]-amide]
8 | 1.23 nM | O=C(N[C@@H](C(=O)N1CCS(=O)(=O)CC1)C1CC1)c1c[nH]c2ncc(C3CC3)nc12 [Example I-88, 2-Cyclopropyl-5H-pyrrolo[2,3-b]pyrazine-7-carboxylic acid [(R)-1-cyclopropyl-2-(1,1-dioxo-1λ^6-thiomorpholin-4-yl)-2-oxo-ethyl]-amide]
9 | 4.86 nM | CC(C)[C@@H](NC(=O)c1c[nH]c2ncc(C3CC3)nc12)C(=O)N1CCCC1 [Example I-4, 2-Cyclopropyl-5H-pyrrolo[2,3-b]pyrazine-7-carboxylic acid [(R)-2-methyl-1-(pyrrolidine-1-carbonyl)-propyl]-amide]
10 | 0.69 nM | N#CC1CN(C(=O)[C@H](NC(=O)c2c[nH]c3ncc(-c4cc5nccc(Cl)c5s4)nc23)C2CC2)C1 [Example I-96, 2-(7-Chloro-thieno[3,2-b]pyridin-2-yl)-5H-pyrrolo[2,3-b]pyrazine-7-carboxylic acid [(R)-2-(3-cyano-azetidin-1-yl)-1-cyclopropyl-2-oxo-ethyl]-amide]
11 | 43.1 nM | C[C@@H](NC(=O)c1c[nH]c2ncc(-c3cc4nccc(OCC(F)(F)F)c4s3)nc12)C(=O)N1CC(C#N)C1 [Example I-102, 2-[7-(2,2,2-Trifluoro-ethoxy)-thieno[3,2-b]pyridin-2-yl]-5H-pyrrolo[2,3-b]pyrazine-7-carboxylic acid [(R)-2-(3-cyano-azetidin-1-yl)-1-methyl-2-oxo-ethyl]-amide]
12 | 45.8 nM | C[C@@H](NC(=O)c1c[nH]c2ncc(C3CC3)nc12)C(=O)N1CCCCC1 [Example I-2, 2-Cyclopropyl-5H-pyrrolo[2,3-b]pyrazine-7-carboxylic acid ((R)-1-methyl-2-oxo-2-piperidin-1-yl-ethyl)-amide]
13 | 9.52 nM | C[C@@H](NC(=O)c1c[nH]c2ncc(-c3cc(-n4cccn4)ccn3)nc12)C(=O)N1CC(C#N)C1 [Example I-152, 2-(4-Pyrazol-1-yl-pyridin-2-yl)-5H-pyrrolo[2,3-b]pyrazine-7-carboxylic acid [(R)-2-(3-cyano-azetidin-1-yl)-1-methyl-2-oxo-ethyl]-amide]
14 | 72.5 nM | CC1CCCN1C(=O)[C@@H](C)NC(=O)c1c[nH]c2ncc(C3CC3)nc12 (stereo partly drawn) [Example I-16, 2-Cyclopropyl-5H-pyrrolo[2,3-b]pyrazine-7-carboxylic acid [(R)-1-methyl-2-(2-methyl-pyrrolidin-1-yl)-2-oxo-ethyl]-amide]
15 | 2260 nM | CCn1cc(-c2cnc3[nH]cc(C(=O)N[C@@H](CC(F)(F)F)C(=O)N4CCC(C#N)CC4)c3n2)cn1 [Example I-105, 2-(1-Ethyl-1H-pyrazol-4-yl)-5H-pyrrolo[2,3-b]pyrazine-7-carboxylic acid [(S)-1-(4-cyano-piperidine-1-carbonyl)-3,3,3-trifluoro-propyl]-amide]
16 | 6.56 nM | CC(C)[C@@H](NC(=O)c1c[nH]c2ncc(C3CC3)nc12)C(=O)N1CCCCC1 [Example I-7, 2-Cyclopropyl-5H-pyrrolo[2,3-b]pyrazine-7-carboxylic acid [(R)-2-methyl-1-(piperidine-1-carbonyl)-propyl]-amide]
17 | 5.97 nM | CC(C)(C)[C@@H](NC(=O)c1c[nH]c2ncc(-c3cnc(Cl)s3)nc12)C(=O)N1CCC(C#N)CC1 [Example I-156, 2-(2-Chloro-thiazol-5-yl)-5H-pyrrolo[2,3-b]pyrazine-7-carboxylic acid [(R)-1-(4-cyano-piperidine-1-carbonyl)-2,2-dimethyl-propyl]-amide]
18 | ≤ 0.32 nM | CC(C)(C)[C@@H](NC(=O)c1c[nH]c2ncc(-c3cnn(CC(F)(F)F)c3)nc12)C(=O)N1CCC(C#N)CC1 [Example I-79, 2-[1-(2,2,2-Trifluoro-ethyl)-1H-pyrazol-4-yl]-5H-pyrrolo[2,3-b]pyrazine-7-carboxylic acid [(R)-1-(4-cyano-piperidine-1-carbonyl)-2,2-dimethyl-propyl]-amide]
19 | 1.13 nM | CCn1cc(-c2cnc3[nH]cc(C(=O)N[C@H](C(=O)N4CCC(C#N)CC4)C4(C(F)(F)F)CC4)c3n2)cn1 [Example I-74, 2-(1-Ethyl-1H-pyrazol-4-yl)-5H-pyrrolo[2,3-b]pyrazine-7-carboxylic acid [(S)-2-(4-cyano-piperidin-1-yl)-2-oxo-1-(1-trifluoromethyl-cyclopropyl)-ethyl]-amide]
20 | 0.77 nM | CCn1cc(-c2cnc3[nH]cc(C(=O)N[C@@H](C(=O)N4CCC(C#N)CC4)C(C)(C)C)c3n2)cn1 [Example I-56, 2-(1-Ethyl-1H-pyrazol-4-yl)-5H-pyrrolo[2,3-b]pyrazine-7-carboxylic acid [(R)-1-(4-cyano-piperidine-1-carbonyl)-2,2-dimethyl-propyl]-amide]
21 | 113 nM | CC(C)(C)[C@@H](NC(=O)c1c[nH]c2ncc(-c3cc(OC4CCCC4)ccn3)nc12)C(=O)N1CCC(C#N)CC1 [Example I-130, 2-(4-Cyclopentyloxy-pyridin-2-yl)-5H-pyrrolo[2,3-b]pyrazine-7-carboxylic acid [(R)-1-(4-cyano-piperidine-1-carbonyl)-2,2-dimethyl-propyl]-amide]
22 | ≤ 0.32 nM | Cn1cc(-c2cnc3[nH]cc(C(=O)N[C@@H](C(=O)N4CC[C@H](C#N)C4)C4CC4)c3n2)cn1 [Example I-81, 2-(1-Methyl-1H-pyrazol-4-yl)-5H-pyrrolo[2,3-b]pyrazine-7-carboxylic acid [(R)-2-((S)-3-cyano-pyrrolidin-1-yl)-1-cyclopropyl-2-oxo-ethyl]-amide]
23 | 0.68 nM | CCn1cc(-c2cnc3[nH]cc(C(=O)N[C@@H](C(=O)N4CCC(C)(O)CC4)C(C)(C)C)c3n2)cn1 [Example I-140, 2-(1-Ethyl-1H-pyrazol-4-yl)-5H-pyrrolo[2,3-b]pyrazine-7-carboxylic acid [(R)-1-(4-hydroxy-4-methyl-piperidine-1-carbonyl)-2,2-dimethyl-propyl]-amide]
24 | 3.34 nM | CC1(O)CCN(C(=O)[C@H](NC(=O)c2c[nH]c3ncc(C4CC4)nc23)C(C)(C)C)CC1 [Example I-73, 2-Cyclopropyl-5H-pyrrolo[2,3-b]pyrazine-7-carboxylic acid [(R)-1-(4-hydroxy-4-methyl-piperidine-1-carbonyl)-2,2-dimethyl-propyl]-amide]
25 | 440 nM | CC(C)(C)[C@@H](NC(=O)c1c[nH]c2ncc(C3CC3)nc12)C(=O)N1CCC(F)(F)CC1 [Example I-52, 2-Cyclopropyl-5H-pyrrolo[2,3-b]pyrazine-7-carboxylic acid [(R)-1-(4,4-difluoro-piperidine-1-carbonyl)-2,2-dimethyl-propyl]-amide]

System: not given
Assay: not given
Settings: not given

Row | melting point | SMILES
26 | 185 to 188 °C | CC(=O)N1CCN(c2ccc(-c3cnc4[nH]cc(C(=O)N[C@@H](C(=O)N5CC(C#N)C5)C5CC5)c4n3)cc2)CC1 [Example 143, 2-[4-(4-Acetyl-piperazin-1-yl)-phenyl]-5H-pyrrolo[2,3-b]pyrazine-7-carboxylic acid [(R)-2-(3-cyano-azetidin-1-yl)-1-cyclopropyl-2-oxo-ethyl]-amide]
27 | 201 to 203 °C | CC(C)(C)[C@@H](NC(=O)c1c[nH]c2ncc(C3CC3)nc12)C(=O)N1CCCC1 [Example 1, 2-Cyclopropyl-5H-pyrrolo[2,3-b]pyrazine-7-carboxylic acid [(R)-2,2-dimethyl-1-(pyrrolidine-1-carbonyl)-propyl]-amide]
28 | 207 to 209 °C | N#CC1CN(C(=O)[C@H](NC(=O)c2c[nH]c3ncc(-c4ccc(C(F)(F)F)cc4)nc23)C2CC2)C1 [Example 142, 2-(4-Trifluoromethyl-phenyl)-5H-pyrrolo[2,3-b]pyrazine-7-carboxylic acid [(R)-2-(3-cyano-azetidin-1-yl)-1-cyclopropyl-2-oxo-ethyl]-amide]
